In patent publication EP4722201A1, “3-PHENYLISOXAZOLINE-5-CARBOXAMIDE COMPOUND, AND PREPARATION METHOD THEREFOR, HERBICIDAL COMPOSITION THEREOF AND USE THEREOF” (Jiangsu Flag Chemical Industry Co., Ltd, priority 2023, dated 2024):

Tests used:
Format in all cases: in vivo
[1] = tested on: Eleusine indica; test: Indoor herbicide activity determination, Seed Treatment; pre-emergence (soil spray); settings: Dosage 240 g a.i./ha
Outline: (§1)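 Weed seeds were sown in 7 cm pots of sandy nutrient soil (pH 6.1, 1% organic matter), covered, bottom-watered and held 24 h in a constant-temperature illuminated room before the soil surface was sprayed in a traveling spray tower. Fresh-weight inhibition versus untreated plants was scored 21 days later.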

[2] = tested on: Alopecurus japonicus; test: as above; settings: Dosage 240 g a.i./ha
Outline: as §1

[3] = tested on: Alopecurus myosuroides; test: as above; settings: Dosage 240 g a.i./ha
Outline: as §1

[4] = tested on: Lolium multiflorum; test: as above; settings: Dosage 240 g a.i./ha
Outline: as §1

[5] = tested on: Leptochloa chinensis; test: as above; settings: Dosage 240 g a.i./ha
Outline: as §1

[6] = tested on: Cyperus iria; test: Indoor herbicide activity determination, post-emergence (stem and leaf spray at 2-4 leaf stage); settings: 504 h, 60 g a.i./ha, determined 21 days later, read-out: Inhibition rate of fresh weight, Cyperus iria
Source text: (§2) The testing method for herbicide activity of the compound of the present invention was as follows:
(§3) Post-emergence: an appropriate quantity of seeds of gramineous weeds (Echinochloa crusgalli, Eleusine indica, Digitaria sanguinalis, Alopecurus japonicus, Beckmannia syzigachne, Leptochloa chinensis, Polypogon fugax, Alopecurus aequalis, Lolium multiflorum, Poa annua, Aegilops tauschii, Avena fatua, Alopecurus myosuroides, Alopecurus japonicus and Alopecurus aequalis), broad-leaved weeds (Eclipta prostrata, Amaranthus retroflexus, Rorippa indica, Malachium aquaticum, Veronica polita, Conyza canadensis, Sesbania cannabina, Sagittariatrifolia and Schoenoplectiella juncoides), and Cyperus iria were sown in plastic pots having a diameter of 7 cm and holes at the bottom and filled with nutrient soil (sandy soil, pH 6.1, organic matter 1%) respectively, the seeds were covered with an appropriate amount of soil after being sown, then the soil was wetted with water from the bottom, the seeds were cultured in a constant-temperature illuminated culture room until a 2-4 leaf stage, and stems and leaves underwent spray treatment. After the treatment, the test materials were placed in a laboratory and cultured in the constant-temperature illuminated culture room after the liquid was naturally dry in the shade, and results were determined 21 days later. Inhibition rate of fresh weight % = (1−(fresh weight of treated plants)/(fresh weight of control plants)) × 100% [formula]

[7] = tested on: Digitaria sanguinalis; test: as above; settings: 504 h, 60 g a.i./ha, determined 21 days later, read-out: Inhibition rate of fresh weight, Digitaria sanguinalis
Source text: as §2, §3

[8] = tested on: Eclipta prostrata; test: as above; settings: 504 h, 60 g a.i./ha, determined 21 days later, read-out: Inhibition rate of fresh weight, Eclipta prostrata
Source text: as §2, §3

Row | SMILES | Herbicidal activities, Eleusine indica (inhibition rate class) [1] | Herbicidal activities, Alopecurus japonicus (inhibition rate class) [2] | Herbicidal activities, Alopecurus myosuroides (inhibition rate class) [3] | Herbicidal activities, Lolium multiflorum (inhibition rate class) [4] | Herbicidal activities, Leptochloa chinensis (inhibition rate class) [5] | inhibition at 60 g/ha [6] [%] | inhibition at 60 g/ha [7] [%] | inhibition at 60 g/ha [8] [%]
1 | CC1(C(=O)N[C@H]2C[C@@H](C(=O)O)C2)CC(c2cc(F)cc(OC(F)(F)F)c2)=NO1 (mixture of isomers) [I-157] | A (A indicates that the inhibition rate was greater than or equal to 80% to 100%) | A (A indicates that the inhibition rate was greater than or equal to 80% to 100%) | A (A indicates that the inhibition rate was greater than or equal to 80% to 100%) | A (A indicates that the inhibition rate was greater than or equal to 80% to 100%) | A (A indicates that the inhibition rate was greater than or equal to 80% to 100%) | 60 to 80 | 80 to 100 | 60 to 80
2 | O=C(N[C@H]1C[C@@H](C(=O)O)C1)C1(C(F)(F)F)CC(c2cc(F)cc(OC(F)(F)F)c2)=NO1 (relative stereo) [I-249] | A (A indicates that the inhibition rate was greater than or equal to 80% to 100%) | A (A indicates that the inhibition rate was greater than or equal to 80% to 100%) | A (A indicates that the inhibition rate was greater than or equal to 80% to 100%) | A (A indicates that the inhibition rate was greater than or equal to 80% to 100%) | A (A indicates that the inhibition rate was greater than or equal to 80% to 100%) | 80 to 100 | 80 to 100 | 60 to 80
3 | COC(=O)[C@H]1C[C@@H](NC(=O)C2(C(C)(F)F)CC(c3cc(F)cc(F)c3)=NO2)C1 (relative stereo) [I-347] | A (A indicates that the inhibition rate was greater than or equal to 80% to 100%) | A (A indicates that the inhibition rate was greater than or equal to 80% to 100%) | A (A indicates that the inhibition rate was greater than or equal to 80% to 100%) | A (A indicates that the inhibition rate was greater than or equal to 80% to 100%) | A (A indicates that the inhibition rate was greater than or equal to 80% to 100%) | 80 to 100 | 60 to 80 | 40 to 60
4 | C=C(F)C1(C(=O)N[C@H]2C[C@@H](C(=O)OC)C2)CC(c2cc(F)cc(F)c2)=NO1 (relative stereo) [I-356] | A (A indicates that the inhibition rate was greater than or equal to 80% to 100%) | A (A indicates that the inhibition rate was greater than or equal to 80% to 100%) | A (A indicates that the inhibition rate was greater than or equal to 80% to 100%) | A (A indicates that the inhibition rate was greater than or equal to 80% to 100%) | A (A indicates that the inhibition rate was greater than or equal to 80% to 100%) | 80 to 100 | 60 to 80 | 40 to 60
5 | C=CC1(C(=O)N[C@H]2C[C@@H](C(=O)OC)C2)CC(c2cc(F)cc(Cl)c2)=NO1 (mixture of isomers) [I-29] | A (A indicates that the inhibition rate was greater than or equal to 80% to 100%) | A (A indicates that the inhibition rate was greater than or equal to 80% to 100%) | A (A indicates that the inhibition rate was greater than or equal to 80% to 100%) | A (A indicates that the inhibition rate was greater than or equal to 80% to 100%) | A (A indicates that the inhibition rate was greater than or equal to 80% to 100%) | 80 to 100 | 80 to 100 | 40 to 60
